The text below walks through data of patent US7632506B2, “Identification of new NY-ESO-1 epitopes recognized by CD4+ T-cells” (Ludwig Institute for Cancer Research, priority 2005, dated 2009).

The subject of this assay is CD4+ T cells. Briefly: IFN-γ ELISPOT of CD4+ T cells presensitized with overlapping NY-ESO-1 18 mer peptides. Type of assay: cell-based, human. The following applies: for Patient T cells 1 / Patient T cells 2 / Patient T cells 3: IFN-γ ELISPOT; for Patient T cells 1: day 12, CD4+ T cells of patient 1, autologous peptide pulsed EBV-B cells as targets; for Patient T cells 2: day 12, CD4+ T cells of patient 2, autologous peptide pulsed EBV-B cells as targets; for Patient T cells 3: day 12, CD4+ T cells of patient 3, autologous peptide pulsed EBV-B cells as targets. The procedure: Peripheral blood mono-nuclear cells (“PBMCs”) were separated from heparinized blood via Ficoll density gradient separation, using standard, art recognized techniques. Once this was done, the CD4^+ and CD8^+ T cells were separated from each other using magnetic cell sorting techniques which are well known to the art, producing CD4^+, CD8^+, and CD4^−/CD8^− cell populations.
A series of 18 mer peptides were prepared from the amino acid sequence of NY-ESO-1 as set forth in, e.g., U.S. Pat. No. 5,804,381, incorporated by reference. The peptides were designed to cover the entire sequence of NY-ESO-1, and to provide overlap.
The peptides were then individually pulsed to antigen presenting cells (“APCs”). These were CD4^−/CD8^− PBMCs taken from the same subjects who had provided the CD4^+ and CD8^+ cells. These APCs were irradiated with 3000 rads, and then pulsed with one of the peptides, at a concentration of 10 μg/ml, for 1 hour, in serum free medium. These APCs were then washed, and added to the CD4^+ cells. In the pulsing experiments, the peptides were solubilized in DMSO (100%) and then diluted with PBS to a final concentration of 10% DMSO. The CD4^+ cells had been cultured in a medium of L-arginine (242 mg/l), L-asparagene (50 mg/l), L-glutamine (300 mg/l), penicillin (10 IU/ml), streptomycin (100 μg/ml), 1% non-essential amino acids, 10% HS, and 10 ng/ml of recombinant human IL-2.
The CD4^+ T cells were restimulated weekly with 1 μg/ml of the peptide being used. On day 12, each CD4^+ culture was assayed for NY-ESO-1 peptide recognition, using the ELISPOT assay of lager, et al., Proc. Natl. Acad. Sci. USA, 97(9):4760-4765 (2000), incorporated by reference. To elaborate on this procedure, flat-bottomed, 96-well nitrocellulose plates were coated with 5 μg/ml of anti-interferon-gamma antibody and incubated overnight at 4° C. After washing with PBS, plates were blocked with 10% human serum (HS) for 1 hour at 37° C. Depending on the effector:target ratio used, various numbers of presensitized CD4^+ T-cells were added to each well along with 5×10^4 autologous peptide pulsed EBV transfected B cells (“EBV-B cells”) serving as target cells and incubated for 16 hours at 37° C. in TCM without IL-2. Plates were then washed extensively (6 times with a solution of 0.05% Tween 20/PBS), and biotinylated anti-interferon-gamma detection antibody was added at a concentration of 0.5 μg/ml. After incubation for 2 h at 37° C., plates were washed and incubated with ABC-AP Vectastain for 1 hour. Plates were washed again and developed with substrate (BCIP/NPT) until blue spots were visible. The number of blue spots/well represented the proportion of NY-ESO-1 specific CD4^+ T-cells/well was finally counted under the microscope.
The EBV-B-cells were generated from each patients' PBMC following standard methods and maintained in RPMI 1640 medium supplemented with 10 mM Hepes buffer, L-arginine (242 mg/l), L-asparagine (50mg/l), L-glutamine (300 mg/l), penicillin (10 IU/ml), streptomycin (100 μg/ml), 1% non-essential amino acids, and 10% FCS. […] PBMC's or EBV-B-cells were molecularly typed for HLA expression using standard procedures.

For the substance “P13-30: synthetic 18 mer peptide, amino acids 13-30 of NY-ESO-1 (GDADGPGGPGIPDGPGGN; UniProt P78358 13-30, looked up, fragment) [Peptide P13-30]”, the “Patient T cells 1” value is “− (− indicates <50 spots)”, the “Patient T cells 2” value is given as “− (− indicates <50 spots)” and the “Patient T cells 3” value is “− (− indicates <50 spots)”.

Turning to “P19-36: synthetic 18 mer peptide, amino acids 19-36 of NY-ESO-1 (GGPGIPDGPGGNAGGPGE; UniProt P78358 19-36, looked up, fragment) [Peptide P19-36]”, the “Patient T cells 1” value is given as “− (− indicates <50 spots)”, the “Patient T cells 2” value is recorded as “− (− indicates <50 spots)” and the “Patient T cells 3” value is reported as “− (− indicates <50 spots)”.

On to “P25-42: synthetic 18 mer peptide, amino acids 25-42 of NY-ESO-1 (DGPGGNAGGPGEAGATGG; UniProt P78358 25-42, looked up, fragment) [Peptide P25-42]”, for which the “Patient T cells 1” value was “− (− indicates <50 spots)”, the “Patient T cells 2” value was “− (− indicates <50 spots)” and the “Patient T cells 3” value was “− (− indicates <50 spots)”.

With “P31-48: synthetic 18 mer peptide, amino acids 31-48 of NY-ESO-1 (AGGPGEAGATGGRGPRGA; UniProt P78358 31-48, looked up, fragment) [Peptide P31-48]”, the “Patient T cells 1” value is “− (− indicates <50 spots)”, the “Patient T cells 2” value is listed as “− (− indicates <50 spots)” and the “Patient T cells 3” value was “− (− indicates <50 spots)”.

On to “P37-54: synthetic 18 mer peptide, amino acids 37-54 of NY-ESO-1 (AGATGGRGPRGAGAARAS; UniProt P78358 37-54, looked up, fragment) [Peptide P37-54]”, for which the “Patient T cells 1” value was “− (− indicates <50 spots)”, the “Patient T cells 2” value is recorded as “− (− indicates <50 spots)” and the “Patient T cells 3” value is recorded as “− (− indicates <50 spots)”.

Turning to “P43-60: synthetic 18 mer peptide, amino acids 43-60 of NY-ESO-1 (RGPRGAGAARASGPGGGA; UniProt P78358 43-60, looked up, fragment) [Peptide P43-60]”, the “Patient T cells 1” value was “− (− indicates <50 spots)”, the “Patient T cells 2” value is given as “+ (+ indicates >50 spots (all + scores indicated were >100 spots))” and the “Patient T cells 3” value was “− (− indicates <50 spots)”. The “patients whose CD4+ T cells recognized the peptide” value (three patients tested) is “one patient”.

Take “P67-84: synthetic 18 mer peptide, amino acids 67-84 of NY-ESO-1 (GAASGLNGCCRCGARGPE; UniProt P78358 67-84, looked up, fragment) [Peptide P67-84]”: the “Patient T cells 1” value is given as “− (− indicates <50 spots)”, the “Patient T cells 2” value was “− (− indicates <50 spots)” and the “Patient T cells 3” value is on record as “− (− indicates <50 spots)”.

Regarding “P73-90: synthetic 18 mer peptide, amino acids 73-90 of NY-ESO-1 (NGCCRCGARGPESRLLEF; UniProt P78358 73-90, looked up, fragment) [Peptide P73-90]”, the “Patient T cells 1” value is given as “− (− indicates <50 spots)”, the “Patient T cells 2” value is “− (− indicates <50 spots)” and the “Patient T cells 3” value is given as “− (− indicates <50 spots)”.

With “P79-96: synthetic 18 mer peptide, amino acids 79-96 of NY-ESO-1 (GARGPESRLLEFYLAMPF; UniProt P78358 79-96, looked up, fragment) [Peptide P79-96]”, the “Patient T cells 1” value is given as “− (− indicates <50 spots)”, the “Patient T cells 2” value was “− (− indicates <50 spots)” and the “Patient T cells 3” value was “− (− indicates <50 spots)”.
